Drawing on publication PMC9821969, “Metabolomic Strategy to Characterize the Profile of Secondary Metabolites in Aspergillus aculeatus DL1011 Regulated by Chemical Epigenetic Agents” (Molecules, 2022), this text covers IC50 for one compound.

The target in this test is T1, SHP1 (Homo sapiens, UniProt P29350).
T1 construct: gene PTPN6; domain protein
T1 sequence (P29350 244-515 limits assumed): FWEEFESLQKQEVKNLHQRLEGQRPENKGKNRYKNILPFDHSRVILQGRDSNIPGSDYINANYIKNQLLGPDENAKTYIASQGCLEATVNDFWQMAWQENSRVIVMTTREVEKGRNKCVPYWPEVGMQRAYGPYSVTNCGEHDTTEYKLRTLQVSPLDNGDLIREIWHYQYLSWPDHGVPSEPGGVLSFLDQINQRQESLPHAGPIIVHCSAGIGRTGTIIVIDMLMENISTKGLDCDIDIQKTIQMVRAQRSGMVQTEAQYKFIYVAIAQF
In words: pNPP phosphatase assay, absorbance at […] nm. The test is classed as biochemical.

On to `CO[C@@]1(C)[C@H](O)C(=O)C(C)=C(O)[C@@H]1Oc1c(C)c(O)cc(C)c1C(=O)O` [S10, Roseopurpurin A], for which inhibition was half-maximal at 16 µM (IC50).
